Test results taken from patent US20110077581A1, “TARGETED CELLULAR DELIVERY OF NANOPARTICLES” (GEORGIA TECH RESEARCH CORPORATION, priority 2009, published 2011).
Read-outs that look alike come from different tables or passages of the source.

Tests used:
[1] = system: ERα(+) MCF-7 breast cancer cells; test: Cell viability assay (MTT or XTT) in ERα(+) MCF-7 breast cancer cells; format: cell-based, human; conditions: conjugate as effective TAM-PEG-SH ligand concentration, read-out: IC50 (50% inhibitory concentration), cell viability
Description: Cell culture and nanoparticle incubation. ERα(−) MDA-MB-231 and ERα(+) MCF-7 breast cancer cells (human adenocarcinoma, ATCC) or ERα(+) human squamous cell carcinoma (43-45) (HSC-3) cells were cultured to 10^5 cells/cm^2 in DMEM growth media supplanted with 10% v/v heat-inactivated fetal bovine serum, penicillin (100 U/ml), streptomycin (100 μg/ml), 4.5 g/L glucose, […], without L-glutamine and phenol red at 37° C. in a 5% CO2 humidified atmosphere. Growth media was removed from the cell cultures and replaced with identical media containing gold nanoparticle conjugates heated to 37° C. at time=0 h.
Cell viability assay. Following incubation, growth media containing gold nanoparticle conjugates was removed and cells were rinsed twice in sterile Dulbecco's phosphate buffered saline (DPBS). Mitochondrial dehydrogenase activity was assessed by MTT or XTT spectrophotometric assay (Sigma TOX1, TOX2) following the manufacturer's instructions. The assay was performed using a SpectraMax Plus 384 microplate reader and statistical analysis was performed by t-test.

[2] = system: MCF-7 cells; test: In vitro laser photothermal therapy of MCF-7 cells; format: cell-based, human; conditions: MCF-7, 0.5 μM, 24 h
Description: Following this incubation, cell cultures ere gently rinsed in sterile DPBS buffer and replaced with unmodified growth media prior to laser photothermal treatment. Laser photothermal treatment was performed using the 514.5 nm line of an argon ion laser (Innova 300 Coherent) for 2 min at room temperature (0.32 cm^2). Control cells were similarly removed, however, were untreated with the laser.

[3] = cited from earlier work

| Molecule | IC50 ([1]; MCF-7, 24 h incubation) | IC50 ([1]; MCF-7, 36 h incubation) | IC50 ([1]; MCF-7, 48 h incubation) | in vitro cytotoxicity in the absence of laser treatment [2] | steady-state blood plasma concentration ([3]; tamoxifen administered at 10 mg/day) | steady-state blood plasma concentration ([3]; tamoxifen administered at 20 mg/day) |
| --- | --- | --- | --- | --- | --- | --- |
| Thiol-pegylated tamoxifen [TAM-PEG-SH] | 3.6 µM | 1.4 µM | 1.1 µM |  |  |  |
| CC/C(=C(\c1ccccc1)c1ccc(OCCN(C)C)cc1)c1ccccc1 [tamoxifen] |  |  |  | no appreciable in vitro cytotoxicity | 0.40 µM | 0.81 µM |
